How the values were obtained:
[1] = system: Penicillium decumbens; test: Inhibition of Penicillium decumbens alpha-L-rhamnosidase at 750 uM relative to control
[2] = system: Escherichia coli; test: Inhibition of Escherichia coli beta-galactosidase at 1000 uM using p-nitrophenyl-glycoside as substrate by spectrophotometric method
[3] = Inhibition of almond beta-glucosidase using p-nitrophenyl-glycoside as substrate by spectrophotometric method; design: species or system Prunus dulcis
[4] = molecular target: T1, Alpha-mannosidase (Canavalia ensiformis) (UniProt C0HJB3); test: Inhibition of Jack bean alpha-mannosidase at 1000 uM preincubated for 45 mins followed by addition of p-nitrophenyl-glycoside as substrate measured after 30 mins by fluorescence spectrophometry
T1 sequence (whole entry): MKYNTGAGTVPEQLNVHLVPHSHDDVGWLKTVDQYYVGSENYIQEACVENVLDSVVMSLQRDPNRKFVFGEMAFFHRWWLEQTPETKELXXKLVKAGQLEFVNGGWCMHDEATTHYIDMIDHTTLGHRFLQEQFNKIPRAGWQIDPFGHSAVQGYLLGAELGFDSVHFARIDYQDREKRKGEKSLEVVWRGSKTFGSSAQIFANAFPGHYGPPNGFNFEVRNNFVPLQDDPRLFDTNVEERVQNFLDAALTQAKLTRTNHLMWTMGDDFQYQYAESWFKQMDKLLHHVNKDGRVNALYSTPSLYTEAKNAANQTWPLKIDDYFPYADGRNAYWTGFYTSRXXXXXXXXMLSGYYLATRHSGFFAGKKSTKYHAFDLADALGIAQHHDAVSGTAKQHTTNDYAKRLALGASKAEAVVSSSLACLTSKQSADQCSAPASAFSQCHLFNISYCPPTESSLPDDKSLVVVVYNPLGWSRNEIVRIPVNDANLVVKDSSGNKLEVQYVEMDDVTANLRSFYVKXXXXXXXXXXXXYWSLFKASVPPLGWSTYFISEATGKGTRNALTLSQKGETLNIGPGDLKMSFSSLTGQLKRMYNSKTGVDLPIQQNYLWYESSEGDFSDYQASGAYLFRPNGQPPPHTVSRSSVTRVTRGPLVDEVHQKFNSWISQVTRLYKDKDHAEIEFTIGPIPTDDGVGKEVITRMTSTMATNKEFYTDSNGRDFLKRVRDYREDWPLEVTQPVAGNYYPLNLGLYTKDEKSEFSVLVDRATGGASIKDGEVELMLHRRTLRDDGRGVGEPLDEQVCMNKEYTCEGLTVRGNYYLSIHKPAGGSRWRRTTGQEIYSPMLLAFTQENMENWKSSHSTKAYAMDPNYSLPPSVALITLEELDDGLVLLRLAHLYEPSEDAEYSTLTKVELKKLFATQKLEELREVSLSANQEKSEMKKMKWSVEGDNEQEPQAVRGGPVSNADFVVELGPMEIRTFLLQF

[5] = Inhibition of Aspergillus niger amyloglucosidase assessed as D-glucose level using maltose as substrate measured after 10 to 30 mins
[6] = Inhibition of yeast alpha-glucosidase using p-nitrophenyl-glycoside as substrate by spectrophotometric method; design: species or system Saccharomyces cerevisiae
[7] = system: Coffea; test: Inhibition of coffee bean alpha-galactosidase at 1000 uM using p-nitrophenyl-glycoside as substrate by spectrophotometric method
[8] = species: Homo sapiens; test: Inhibition of human lysosomal beta-glucosidase at 1000 uM using 4-methylumbelliferyl-beta-D-glucopyranoside as substrate preincubated for 45 mins followed by substrate addition measured after 30 mins by fluorescence spectrophotometric method
[9] = Inhibition of Helix pomatia beta-mannosidase using p-nitrophenyl-glycoside as substrate by spectrophotometric method
[10] = Inhibition of bovine liver beta-glucosidase using p-nitrophenyl-glycoside as substrate by spectrophotometric method; design: species or system Bos taurus
[11] = system: Penicillium decumbens; test: Inhibition of Penicillium decumbens alpha-L-rhamnosidase at 1000 uM using p-nitrophenyl-glycoside as substrate by spectrophotometric method
[12] = system: Penicillium decumbens; test: Inhibition of Penicillium decumbens alpha-L-rhamnosidase at 1000 uM relative to control

## C[C@@H]1NC[C@H](O)[C@H](O)[C@H]1O
[1]
  inhibition: < 50%

## OC[C@H]1N[C@H](CO)[C@@H](O)[C@@H]1O
[2]
  inhibition: < 50%
[3]
  IC50: 10 µM
[4]
  inhibition: < 50%
[5]
  IC50: 116 µM
[6]
  IC50: 7.8 µM
[7]
  inhibition: < 50%
[8]
  inhibition: < 50%
[9]
  IC50: 721 µM
[10]
  IC50: 9.7 µM
[11]
  inhibition: < 50%

## OC[C@@H]1NC[C@H](O)[C@@H]1O
[12]
  inhibition: < 50%
